Measured values: patent publication US20260216197A1, “WRN HELICASE INHIBITOR” (SUZHOU PUHE BIOPHARMA CO., LTD., priority 2022, published 2026)
Like-named read-outs stand apart in the source and are kept apart here. Blank lines part the entries; values can stand above or below the compound they belong to.

Experiments:
[1] = target: WRN helicase (Homo sapiens, UniProt Q14191); assay: WRN helicase hydrolysis/unwinding of double-stranded DNA (fluorescence); type: biochemical
Description: The activity of the molecules of the present disclosure on the hydrolysis of double-stranded PP-6TR DNA by WRN helicase was tested.
The working solution and buffer were prepared, and the test compound was dissolved in DMSO followed by a4-fold dilution (with a final concentration of 10 μM as the starting concentration). Then, 0.2 μL of the test compound solution was added to a384-well plate, followed by 10 μL of (2×) WRN enzyme solution. The mixture was incubated in the dark for 30 minutes, after which 10 μL of substrate detection solution containing double-stranded DNA was added to initiate the reaction (DNA length: 19 bp, labeled with TAMRA at the 3′ end and BHQ2 at the 5′ end). The mixture was incubated at room temperature for 60 minutes. The inhibitory activity (IC50) against the WRN enzyme was calculated based on the fluorescence change (Ex530/Em590) between the blank group (DMSO) and the compound group.

[2] = system: MSS colorectal cancer HT-29 cell line; assay: 2D anti-proliferative activity, MSS HT-29 cells (CTG, 5 days); type: cell-based; conditions: Homo sapiens, 120 h
Description: The molecules of the present disclosure were tested for their anti-proliferative activity against MSS tumor cells.
(§1) The MSS HT-29 colorectal cancer cells were cultured in McCoy's 5A medium containing 10% FBS and 1% penicillin-streptomycin in a 37° C., 5% CO2 constant temperature incubator. A 40 μL cell suspension was added to each well of a 384-well microplate. Using Echo, 40 nL of compounds at different concentrations was dispensed into each well, followed by incubation in a 37° C., 5% CO2 constant temperature incubator for 5 days. Then, 40 μL of CTG solution (Promega, Cat No. G7573) was added to each well, and the plate was incubated in the dark in a 37° C., 5% CO2 constant temperature incubator for 30 minutes. Luminescence was measured using an Envision multi-function microplate reader (Perkin Elmer, Model: Envision 2104). The luminescent signal was proportional to the amount of ATP in the system, and the amount of ATP directly represented the number of living cells in the system.

[3] = Pharmacokinetic evaluation in mice; type: in vivo, CD1 female mice; conditions: for F: PO 10 mg/kg vs IV 2 mg/kg; for AUC(0-t): read-out: AUC0-24
Description: CD1 female mice were used as test animals and the drug was administered orally/intravenously (oral dosage: 10 mg/kg, intravenous dosage: 2 mg/kg).
Assay protocol: The oral group consisted of 3 mice per group (vehicle: 10% Hβ-CD-pH7.4), and the intravenous group consisted of 3 mice per group. […] The blood concentrations in plasma after oral and intravenous administration of mice were determined by LC/MS/MS, respectively.

[4] = system: MSI-H colorectal cancer SW48 cell line; assay: 2D anti-proliferative activity, MSI-H SW48 cells (CTG, 5 days); type: cell-based; conditions: for inhibition at 38.15 pM: 0.038146973 nM; for inhibition at 0.000152588 µM: 0.152587891 nM; for inhibition at 0.000610352 µM: 0.610351563 nM; for inhibition at 0.00244141 µM: 2.44140625 nM; for inhibition at 0.00976562 µM: 9.765625 nM; for inhibition at 0.0390625 µM: 39.0625 nM; for inhibition at 0.15625 µM: 156.25 nM; for inhibition at 0.625 µM: 625 nM; for inhibition at […]: 2500 nM; for inhibition at 10 µM: 10000 nM; for IC50: 5 days
Description: The molecules of the present disclosure were tested for their anti-proliferative activity against MSI-H tumor cells.
The proliferation of tumor cells with microsatellite instability MSI-H is sensitive to WRN inhibitors, while the proliferation of microsatellite stable (MSS) tumor cells is insensitive to WRN inhibitors. By testing the activities of the two, it is shown that the molecules of the present disclosure have an inhibitory and synthetic lethal effect on WRN at the cellular level.
as §1, with “MSI-unstable SW48” for “MSS HT-29”, “RPMI 1640” for “McCoy's 5A”

[5] = Liver microsome stability test; type: in vitro ADME; conditions: human liver microsomes 0.5 mg/mL, compound 1 μM, NADPH 1 mM, 60 minutes; for microsomal CLint at 1 μM: read-out: Human Clint μL/min/mg Protein
Description: The liver microsome stability test of the compounds is as follows:
The compounds of the present disclosure were subjected to a liver microsome stability test. The compounds to be tested were co-incubated with liver microsomes of different species with or without the addition of NADPH. The final concentration of the compounds to be tested in the test system was 1 μM, the final concentration of NADPH was 1 mM, and the final concentration of liver microsomes was 0.5 mg/mL.

[6] = Homo sapiens, read-out: Average value/ Inhibition rate
[7] = Homo sapiens, read-out: Test 1/ Inhibition rate
[8] = Homo sapiens, read-out: Test 2/ Inhibition rate
[9] = female, CD1, mouse, plasma, IV 2 mg/kg
[10] = female, CD1, mouse, plasma, PO 10 mg/kg

Sequence of WRN helicase (Q14191 whole entry): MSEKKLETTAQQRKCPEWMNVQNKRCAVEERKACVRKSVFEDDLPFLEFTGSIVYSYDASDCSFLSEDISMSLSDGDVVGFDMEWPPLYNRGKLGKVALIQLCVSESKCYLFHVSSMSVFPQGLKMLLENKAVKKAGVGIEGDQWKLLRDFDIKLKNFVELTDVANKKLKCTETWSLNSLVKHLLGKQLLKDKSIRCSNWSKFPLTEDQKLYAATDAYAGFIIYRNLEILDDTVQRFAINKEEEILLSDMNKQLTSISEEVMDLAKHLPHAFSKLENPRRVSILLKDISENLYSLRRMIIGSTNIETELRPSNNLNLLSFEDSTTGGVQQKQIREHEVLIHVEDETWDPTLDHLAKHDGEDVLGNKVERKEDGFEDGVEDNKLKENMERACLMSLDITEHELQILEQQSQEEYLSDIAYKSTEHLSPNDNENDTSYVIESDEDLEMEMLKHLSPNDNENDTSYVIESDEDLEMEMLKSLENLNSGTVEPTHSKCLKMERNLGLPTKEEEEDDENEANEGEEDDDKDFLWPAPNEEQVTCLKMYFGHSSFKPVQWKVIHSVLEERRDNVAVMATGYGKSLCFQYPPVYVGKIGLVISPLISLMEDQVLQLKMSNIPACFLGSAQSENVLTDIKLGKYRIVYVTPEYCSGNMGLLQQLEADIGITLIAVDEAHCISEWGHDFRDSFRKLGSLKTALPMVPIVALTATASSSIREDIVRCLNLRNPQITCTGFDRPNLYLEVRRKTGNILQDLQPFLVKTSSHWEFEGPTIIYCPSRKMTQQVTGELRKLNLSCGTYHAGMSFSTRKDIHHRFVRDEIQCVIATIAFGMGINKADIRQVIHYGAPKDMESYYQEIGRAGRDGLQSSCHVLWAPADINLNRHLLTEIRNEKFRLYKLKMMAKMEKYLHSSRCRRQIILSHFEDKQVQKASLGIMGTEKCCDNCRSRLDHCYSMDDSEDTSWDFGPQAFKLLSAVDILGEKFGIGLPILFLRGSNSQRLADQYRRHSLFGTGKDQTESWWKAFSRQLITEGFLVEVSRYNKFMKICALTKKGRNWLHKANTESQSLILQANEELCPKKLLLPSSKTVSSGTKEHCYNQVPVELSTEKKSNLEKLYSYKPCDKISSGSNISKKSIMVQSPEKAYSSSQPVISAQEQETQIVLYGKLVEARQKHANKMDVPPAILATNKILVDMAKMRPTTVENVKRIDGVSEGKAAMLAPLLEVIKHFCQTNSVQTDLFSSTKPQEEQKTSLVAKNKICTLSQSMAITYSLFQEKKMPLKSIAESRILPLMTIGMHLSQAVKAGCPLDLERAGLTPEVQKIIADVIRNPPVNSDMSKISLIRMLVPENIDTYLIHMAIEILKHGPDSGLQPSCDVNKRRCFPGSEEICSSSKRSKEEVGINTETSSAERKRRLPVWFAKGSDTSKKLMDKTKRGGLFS

SMILES: Cc1ncnc(C(=O)N2CCN(c3c(C4CC4)n(CC(=O)Nc4ccc(C(F)(F)F)c5ccsc45)c4nc(C5=CCOCC5)nn4c3=O)CC2)c1O [Compound H18]
IC50 [2]: > 10000 nM

SMILES: CCc1c(N2CCN(C(=O)c3ncnc(C)c3O)CC2)c(=O)n2nc(C3=CCOCC3)nc2n1CC(=O)Nc1ccc2c(C(F)(F)F)c[nH]c2c1 [Compound H6]
IC50 [1]: 625 nM

SMILES: CCc1c(N2CCN(C(=O)c3ncccc3O)CC2)c(=O)n2nc(-c3cccnc3)nc2n1CC(=O)Nc1ccc(C(F)(F)F)cc1C [Compound A1, reference compound]
F [3]: 14%
inhibition at 38.15 pM [4, 6]: -0.406%
inhibition at 38.15 pM [4, 7]: -2%
inhibition at 38.15 pM [4, 8]: 1.19%
inhibition at 0.000152588 µM [4, 6]: -9.39%
inhibition at 0.000152588 µM [4, 7]: -13.2%
inhibition at 0.000152588 µM [4, 8]: -5.61%
inhibition at 0.000610352 µM [4, 6]: -2.32%
inhibition at 0.000610352 µM [4, 7]: -2.37%
inhibition at 0.000610352 µM [4, 8]: -2.27%
inhibition at 0.00244141 µM [4, 6]: -11.4%
inhibition at 0.00244141 µM [4, 7]: -13.8%
inhibition at 0.00244141 µM [4, 8]: -8.9%
inhibition at 0.00976562 µM [4, 6]: -4.03%
inhibition at 0.00976562 µM [4, 7]: 0.0311%
inhibition at 0.00976562 µM [4, 8]: -8.09%
inhibition at 0.0390625 µM [4, 6]: -11.9%
inhibition at 0.0390625 µM [4, 7]: -12.6%
inhibition at 0.0390625 µM [4, 8]: -11.1%
inhibition at 0.15625 µM [4, 6]: 6.4%
inhibition at 0.15625 µM [4, 7]: -2.14%
inhibition at 0.15625 µM [4, 8]: 14.9%
inhibition at 0.625 µM [4, 6]: 97.4%
inhibition at 0.625 µM [4, 7]: 97.9%
inhibition at 0.625 µM [4, 8]: 96.9%
inhibition at […] [4, 6]: 101%
inhibition at […] [4, 7]: 99.8%
inhibition at […] [4, 8]: 101%
inhibition at 10 µM [4, 6]: 102%
inhibition at 10 µM [4, 7]: 101%
inhibition at 10 µM [4, 8]: 102%
IC50 ([4]; Homo sapiens, 120 h): 261 nM

SMILES: CCc1c(N2CCN(C(=O)c3ncccc3O)CC2)c(=O)n2nc(C3=CCOCC3)nc2n1CC(=O)NC12CC(C(F)(F)F)(C1)C2 [Compound A2, reference compound]
IC50 ([4]; Homo sapiens, 120 h): 2540 nM
IC50 [1]: 16 nM

SMILES: CCc1c(N2CCN(C(=O)c3ncccc3O)CC2)c(=O)n2nc(N3CCC[C@H](F)C3)nc2n1CC(=O)Nc1ccc(C(F)(F)F)c2ccsc12 [Compound H11]
IC50 [2]: 7410 nM
IC50 ([4]; Homo sapiens, 120 h): 1140 nM
IC50 [1]: 2.4 nM

SMILES: CCc1c(N2CCN(C(=O)c3ncnc(C)c3O)C[C@@H]2C)c(=O)n2nc(C3=CCOCC3)nc2n1CC(=O)Nc1ccc(C(F)(F)F)c2ccsc12 [Compound H17]
IC50 [2]: > 10000 nM
IC50 ([4]; Homo sapiens, 120 h): 123 nM

SMILES: CCc1c(N2CCN(C(=O)c3ncnc(C)c3O)CC2)c(=O)n2nc(C3=CCOCC3)nc2n1CC(=O)Nc1ccc(Br)c2ccsc12 [Compound H15]
IC50 [2]: > 10000 nM
F [3]: 35%
clearance [3, 9]: 50.4 mL/min/kg
half-life [3, 9]: 18 min
AUC(0-t) [3, 9]: 655 ng·h/mL
C0 ([3]; female, CD1, mouse, plasma, IV 2 mg/kg, read-out: C0): 1740 ng/mL
half-life [3, 10]: 114 min
AUC(0-t) [3, 10]: 1050 ng·h/mL
Cmax ([3]; female, CD1, mouse, plasma, PO 10 mg/kg, read-out: Cmax): 693 ng/mL
Tmax ([3]; female, CD1, mouse, plasma, PO 10 mg/kg, read-out: Tmax): 15 min
CLint scaled at 1 μM [5]: 2.5 mL/min/kg
microsomal CLint at 1 μM [5]: 2 µL/min/mg
IC50 ([4]; Homo sapiens, 120 h): 101 nM

SMILES: CCc1c(N2CCN(C(=O)c3ncnc(C)c3O)CC2)c(=O)n2nc(C3=CCC(OC)CC3)nc2n1CC(=O)Nc1ccc(C(F)(F)F)c2ccsc12 (stereo not drawn) [Compound H12]
IC50 [2]: > 10000 nM
CLint scaled at 1 μM [5]: 28 mL/min/kg
microsomal CLint at 1 μM [5]: 22 µL/min/mg
IC50 ([4]; Homo sapiens, 120 h): 126 nM

SMILES: CCc1c(N2CCN(C(=O)c3ncccc3O)CC2)c(=O)n2nc(C3=CCOCC3)nc2n1CC(=O)Nc1ccc(C(F)(F)F)c2c1OCCO2 [Compound H7]
IC50 ([4]; Homo sapiens, 120 h): 1940 nM
IC50 [1]: 9.5 nM

SMILES: CCc1c(N2CCN(C(=O)c3ncnc(C)c3O)CC2)c(=O)n2nc(C3=CCOCC3)nc2n1CC(=O)Nc1ccc2c(c1)NCC2(O)C(F)(F)F (stereo not drawn) [Compound H5]
IC50 [1]: 295 nM

Continued, values first:

IC50 [1]: 3890 nM
SMILES: CCc1c(N2CC3(CN(C(=O)c4ncnc(C)c4O)C3)C2)c(=O)n2nc(C3=CCOCC3)nc2n1CC(=O)Nc1ccc(C(F)(F)F)cc1Cl [Compound P1]

IC50 [1]: 3.5 nM
SMILES: CCc1c(N2CCN(C(=O)c3ncccc3O)CC2)c(=O)n2nc(C3=CCS(=O)(=O)CC3)nc2n1CC(=O)Nc1ccc(C(F)(F)F)cc1Cl [Compound P6]

IC50 ([4]; Homo sapiens, 120 h): 137 nM
SMILES: CCc1c(N2CCN(C(=O)c3ncnc(C)c3O)CC2)c(=O)n2nc(C3=CCOCC3)nc2n1CC(=O)Nc1ccc(Cl)c2ccoc12 [Compound H26]

IC50 [2]: > 10000 nM
CLint scaled at 1 μM [5]: 6 mL/min/kg
microsomal CLint at 1 μM [5]: 4.8 µL/min/mg
IC50 ([4]; Homo sapiens, 120 h): 175 nM
SMILES: CCc1c(N2CCN(C(=O)c3ncnc(C)c3O)CC2)c(=O)n2nc(C3=CCOCC3)nc2n1CC(=O)Nc1ccc(C(F)(F)F)c2scnc12 [Compound H21]

IC50 [2]: > 10000 nM
IC50 ([4]; Homo sapiens, 120 h): > 10000 nM
SMILES: CCc1c(N2CCN(C(=O)c3ncnc(C)c3O)CC2)c(=O)n2nc(C3=CCOCC3)nc2n1CC(=O)Nc1ccc2c3c1ncn3CCC2 [Compound H23]

IC50 [4]: 135 nM
IC50 [1]: 1.9 nM
SMILES: CCc1c(N2CCN(C(=O)c3ncccc3O)CC2)c(=O)n2nc(-c3cccs3)nc2n1CC(=O)Nc1ccc(C(F)(F)F)cc1Cl [Compound P4]

IC50 ([4]; Homo sapiens, 120 h): 474 nM
SMILES: CCc1c(N2CCN(C(=O)c3ncnc(C)c3O)CC2)c(=O)n2nc(C3=CCOCC3)nc2n1CC(=O)Nc1ccc2c3c1ccn3CCC2 [Compound H24]

IC50 ([4]; Homo sapiens, 120 h): 192 nM
SMILES: CCc1c(N2CCN(C(=O)c3ncccc3O)CC2)c(=O)n2nc(-c3cncs3)nc2n1CC(=O)Nc1ccc(C(F)(F)F)cc1Cl [Compound P5]

IC50 ([4]; Homo sapiens, 120 h): 125 nM
SMILES: CCc1c(N2CCN(C(=O)c3ncnc(C)c3O)CC2)c(=O)n2nc(C3=CCOCC3)nc2n1CC(=O)Nc1ccc(Br)c2ccoc12 [Compound H25]
